In general, IC50 refers to the concentration at which inhibition is half-maximal. The low end stands for greater potency, the high end for weaker potency.

For experiment [1], the system named is A-431. As to the kind of experiment: Tested for antiproliferative activity against human A431 cells. Format: functional, cell-based.
Experiment [2] has as its system A-431. As to the kind of experiment: cells. Conditions: Homo sapiens.
Description: Inhibitory effect on nonphospho-Src after EGF (100 uM) stimulation of A431 cells (control=178)
Experiment [3] concerns A-431. As to the kind of experiment: Inhibitory effect on phospho-Src/nonphospho after EGF (100 uM) stimulation of A431 cells (21). Conditions: Homo sapiens.
In experiment [4] the test system is A-431. Kind of experiment: Inhibitory effect on phospho-Src (Tyr416) after EGF (100 uM) stimulation of A431 cells (38). Conditions: Homo sapiens.

The structures appear in SMILES notation.

For the compound `CCCCNc1nc(SC)nc2c1cnn2CC(Cl)c1ccccc1` (configuration not stated), the IC50 in experiment [1] is 27 µM.
Regarding `CSc1nc(NCc2ccccc2)c2cnn(/C=C/c3ccccc3)c2n1`, it took 40 µM to reach half-maximal inhibition in experiment [1] (IC50).
As for `CC(C)(C)n1nc(-c2ccc(Cl)cc2)c2c(N)ncnc21`, the IC50 was determined as 131 µM in experiment [2], 17 µM in experiment [3] and 22 µM in experiment [4].
`CCCNc1ncnc2c1cnn2/C=C/c1ccccc1`: in experiment [1], the IC50 was 61 µM.
As for `CSc1nc(NCc2ccccc2)c2cnn(CC(Cl)c3ccccc3)c2n1` (configuration not stated), the IC50 in experiment [3] turned out to be 21 µM; in experiment [4], 32 µM.
In experiment [1], `CCSc1nc(N2CCCCC2)c2cnn(CC(Cl)c3ccccc3)c2n1` (configuration not stated) had an IC50 of 176 µM.
Take `C(=C\n1ncc2c(N3CCCC3)ncnc21)/c1ccccc1`: in experiment [1], the midpoint of inhibition, the IC50, lay at 63 µM.
On the same count and under the same terms, the result for `CCSc1nc(NCc2ccccc2)c2cnn(CC(Cl)c3ccccc3)c2n1` (configuration not stated) reads 124 µM; that for `CSc1nc(N2CCOCC2)c2cnn(/C=C/c3ccccc3)c2n1`, 36 µM; that for `COc1cc2ncnc(Nc3cccc(Cl)c3)c2cc1OC` [TYRPHOSTIN AG-1478], 20 µM.
`CSc1nc(N2CCCCC2)c2cnn(/C=C/c3ccccc3)c2n1` returned an IC50 in experiment [1] of 54 µM.
In experiment [1], `C(=C\n1ncc2c(N3CCCCC3)ncnc21)/c1ccccc1` yielded a concentration for half-maximal inhibition (IC50) of 69 µM.
Regarding `CSc1nc(N2CCOCC2)c2cnn(CC(Cl)c3ccccc3)c2n1` (configuration not stated), the IC50 in experiment [3] stood at 24 µM; in experiment [4], 34 µM.
For the compound `C(=C\n1ncc2c(N3CCOCC3)ncnc21)/c1ccccc1`, the midpoint of inhibition in experiment [1], the IC50, lay at 59 µM.
`CCCCNc1ncnc2c1cnn2/C=C/c1ccccc1` had an IC50 in experiment [1] of 91 µM. This IC50 is about 1.5-fold higher than that of the compound before.
Same read-out and setting: the result for `CCSc1nc(N2CCOCC2)c2cnn(/C=C/c3ccccc3)c2n1` reads 50 µM.
Regarding `CCCCNc1nc(SCC)nc2c1cnn2CC(Cl)c1ccccc1` (configuration not stated), the IC50 came out at 33 µM in experiment [3] and 53 µM in experiment [4].

Source of the values: ChEMBL document CHEMBL1146730, “New pyrazolo[3,4-d]pyrimidines endowed with A431 antiproliferative activity and inhibitory properties of Src phosphorylation” (Bioorg Med Chem Lett, 2004).
